{"source": "patent US20110212948A1", "about": "(priority 2008, published 2011)", "key": {"[1]": {"settings": "in vivo, 0.6 mg/kg"}, "[2]": {"assay": "Multiple dose study: veterinary examination, haematology and serum biochemistry", "settings": "0.6 mg/kg every 12 hours for 14 days; except serum cholesterol", "description": "Six foals were available for inclusion in this part of the study and were randomly assigned to treatment (four foals) or control groups (two foals). […] To ensure foals were recruited into the study within 4 weeks of birth, the study was performed twice, with 2 treated and one control foal in each replicate.\nFoals were examined twice daily for the duration of the study. Staff responsible for veterinary examination of foals were blinded to treatment.\nPeripheral blood samples were submitted for routine haematology and serum biochemistry at a commercial laboratory (Idexx Laboratories, Rydalmere, NSW) twice weekly (treatment days 0, 2, 6, 9, 13 and 16). Gastroscopy and urine analysis (Dip Stik and urine enzyme analysis1) were performed weekly on all foals."}, "[3]": {"settings": "adult horses, cited from earlier work"}, "[4]": {"settings": "current study, foals, single oral dose 0.6 mg/kg, mean ± SD"}, "[5]": {"assay": "Multiple dose study: gastroscopy", "type": "in vivo, foals"}, "[6]": {"assay": "Multiple dose study: peak and trough plasma meloxicam concentrations", "type": "in vivo, foals", "procedure": "Blood for ‘trough’ serum levels was collected from foals immediately prior to administration of morning treatment. ‘Peak’ plasma concentrations were determined from blood samples collected 2 hours following administration of the morning treatment (as per the schedule above)."}, "[7]": {"assay": "Faecal occult blood testing with guaiac-based slides (Hemoccult Sensa)", "type": "in vivo", "settings": "treated and control foals, all occasions", "procedure": "Faecal occult blood testing using guaiac-based slides (Hemoccult Sensa, Beckman Coulter Australia Pty Ltd, Gladesville, NSW) was evaluated for the detection of gastrointestinal bleeding in treated and control foals. This technique has been reported as a sensitive method for identifying gastric or right dorsal colon ulceration in adult horses (Pellegrini 2005). Faecal samples were collected on DSP days from all foals and processed according to the manufacturer's instructions. Tests were negative for blood (haemoglobin) on all occasions."}, "[8]": {"settings": "adult horses, cited from earlier work", "remark": "listed apart in the source"}, "[9]": {"settings": "Bioequivalence study (CML039) Reference"}, "[10]": {"settings": "Bioequivalence study (CML039) Test"}}, "note": "Read-outs that look alike come from different tables or passages of the source."}
{"compound": "Cc1cnc(NC(=O)C2=C(O)c3ccccc3S(=O)(=O)N2C)s1", "note": "[meloxicam]", "values": [{"measurement": "Adverse effects after a single oral dose (physical examination)", "setting": "[1]", "value": "no adverse effects"}, {"measurement": "Albumin, mean post-Tx (±sem)", "setting": "[1]; po", "value": "29 (±1) g/L"}, {"measurement": "Creatinine, median post-Tx", "setting": "[1]; po", "value": 0.09, "unit": "mmol/L"}, {"measurement": "Glucose, mean post-Tx (±sem)", "setting": "[1]; po", "value": "8.8 (±0.6) mmol/L"}, {"measurement": "Haemoglobin, mean post-Tx (±sem)", "setting": "[1]; po", "value": "123 (±4) g/L"}, {"measurement": "PCV, mean post-Tx (±sem)", "setting": "[1]; po", "value": "35 (±1) %"}, {"measurement": "Potassium, median post-Tx", "setting": "[1]; po", "value": 4.0, "unit": "mmol/L"}, {"measurement": "Sodium, mean post-Tx (±sem)", "setting": "[1]; po", "value": "138 (±1) mmol/L"}, {"measurement": "Urea, mean post-Tx (±sem)", "setting": "[1]; po", "value": "2.1 (±0.1) mmol/L"}, {"measurement": "Haematology and serum biochemistry, treated vs control foals", "setting": "[2]", "value": "no significant differences"}, {"measurement": "Area under curve", "setting": "[3]; [9]", "value": 10752.4, "unit": "ng/mL/h"}, {"measurement": "Cmax (oral admin)", "setting": "[3]; [9]", "value": 777.5, "unit": "ng/mL"}, {"measurement": "Tmax (oral admin)", "setting": "[3]; [9]", "value": 3.8, "unit": "h"}, {"measurement": "Area under curve", "setting": "[3]; [10]", "value": 11281.0, "unit": "ng/mL/h"}, {"measurement": "Tmax (oral admin)", "setting": "[3]; [10]", "value": 2.6, "unit": "h"}, {"measurement": "Area under curve", "setting": "[4]", "value": 3870.3, "unit": "ng/mL/h"}, {"measurement": "Gastroscopy finding, margo plicatus of a treated foal (FIG. 18)", "setting": "[5]; Day 7 of multiple dose study", "value": "normal margo plicatus"}, {"measurement": "Gastroscopy finding, treated foal F8 (FIG. 21)", "setting": "[5]; Day 7 of multiple dose study, erythemia already present before single dose", "value": "superficial erosions of squamous mucosa"}, {"measurement": "Gastroscopy finding, margo plicatus of same treated foal (FIG. 19)", "setting": "[5]; Day 14 of multiple dose study", "value": "small, well circumscribed and very superficial ulcer"}, {"measurement": "Gastric mucosal damage on gastroscopic examination", "setting": "[5]; all foals, 0.6 mg/kg every 12 hours for 14 days", "value": "failed to identify evidence of significant gastric mucosal damage"}, {"measurement": "Gastroscopy finding, treated foal F8 (FIG. 22)", "setting": "[5]; following 14 days of treatment", "value": "no evidence of ongoing mucosal ulceration"}, {"measurement": "Accumulation of drug in serum", "setting": "[6]; foals, 0.6 mg/kg by mouth every 12 hours for 14 days", "value": "did not appear to accumulate"}, {"measurement": "concentration at 14 days", "setting": "[6]; horse, in vivo, foals less than 6 weeks, 0.6 mg/kg by mouth every 12 hours", "value": "100 to 1000", "unit": "ng/mL"}, {"measurement": "concentration at 2 h", "setting": "[6]; horse, in vivo, foals, 0.6 mg/kg by mouth every 12 hours for 14 days, 2 h after morning dose, read-out: Peak serum concentrations with repeated dosing", "value": "500 to 1200", "unit": "ng/mL"}, {"measurement": "Faecal occult blood (haemoglobin)", "setting": "[7]", "value": "negative"}, {"measurement": "Cmax", "setting": "[8]; Lees et al 1991 (IV administration)", "value": 9230, "unit": "ng/mL"}, {"measurement": "Area under curve", "setting": "[8]; Lees et al 1991", "value": 14530, "unit": "ng/mL/h"}, {"measurement": "Cmax", "setting": "[8]; Little et al 2007 (IV administration)", "value": 9780, "unit": "ng/mL"}, {"measurement": "Area under curve", "setting": "[8]; Little et al 2007", "value": 33440, "unit": "ng/mL/h"}, {"measurement": "Cmax (oral admin)", "setting": "[8]; Toutain et al 2004b", "value": 2580, "unit": "ng/mL"}, {"measurement": "Bioavailability (fasted)", "setting": "[8]; fasted, Toutain et al 2004b", "value": 85.3}, {"measurement": "Bioavailability (fed)", "setting": "[8]; fed, Toutain et al 2004b", "value": 95.9}]}
